The supplement of paper PMC10307832

What was measured:
Test in all cases: relative viability (nuclei count vs DMSO), 5 days (fraction); higher = more cells survive
[1] = compound: Cc1cnc(CNC(=O)c2c(=O)c3ccc(N4CCCN(C)CC4)nc3n3c2sc2ccccc23)cn1 [CX-5461] + Cc1nc(NC(=O)N2CCC[C@H]2C(N)=O)sc1-c1ccnc(C(C)(C)C(F)(F)F)c1 [Alpelisib] (partner 2 µM)
How it was run: (§1)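 Lung cancer cell lines were seeded in 1536-well plates and dosed by pin tool the next day, with either a single drug or a fixed anchor-drug dose combined with five library-drug doses (not always all listed) spaced in √10 steps. Five days later, one step fixed the cells and stained their nuclei (final 0.05% Triton X-100, 1% formaldehyde, 1 ug/ml Hoechst), and nuclei were counted on 4× images. Relative viability is the nuclei count in treated wells divided by the count in vehicle wells, and each value is the median of duplicate plates.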

[2] = compound: O=C(Nc1cc(C(F)(F)F)cc(C(F)(F)F)c1)c1cc(Cl)ccc1O [IMD-0354] + N=C(N)NC(=N)NCCc1ccccc1 [Phenformin] (partner 250 µM)
How it was run: as §1

[3] = compound: Cc1cnc(CNC(=O)c2c(=O)c3ccc(N4CCCN(C)CC4)nc3n3c2sc2ccccc23)cn1 [CX-5461] + Cc1nc(Nc2ncc(C(=O)Nc3c(C)cccc3Cl)s2)cc(N2CCN(CCO)CC2)n1 [Dasatinib] (partner 0.075 µM)
How it was run: as §1

[4] = compound: O=C(Nc1cc(C(F)(F)F)cc(C(F)(F)F)c1)c1cc(Cl)ccc1O [IMD-0354] + COc1cc2c(Oc3ccc(NC(=O)C4(C(=O)Nc5ccc(F)cc5)CC4)cc3F)ccnc2cc1OCCCN1CCOCC1 [Foretinib] (partner 0.25 µM)
How it was run: as §1

Cell Line	relative viability ([1]; first compound 0.03162 µM)	relative viability ([1]; first compound 0.3162 µM)	relative viability ([1]; first compound 1 µM)	relative viability ([2]; first compound 0.04 µM)	relative viability ([2]; first compound 0.1265 µM)	relative viability ([2]; first compound 0.4 µM)	relative viability ([2]; first compound 1.265 µM)	relative viability ([2]; first compound 4 µM)	relative viability ([3]; first compound 0.01 µM)	relative viability ([3]; first compound 0.03162 µM)	relative viability ([3]; first compound 0.3162 µM)	relative viability ([3]; first compound 1 µM)	relative viability ([4]; first compound 0.04 µM)	relative viability ([4]; first compound 0.1265 µM)	relative viability ([4]; first compound 0.4 µM)	relative viability ([4]; first compound 1.265 µM)	relative viability ([4]; first compound 4 µM)	relative viability ([1]; first compound 0.01 µM)	relative viability ([3]; first compound 0.1 µM)	relative viability ([1]; first compound 0.1 µM)
NCI-H1651	0.79	0.665	0.115	0.35	0.22	0.198	0.106	0.0771	0.378	0.254	0.178	0.112	0.816	0.716	0.433	0.312	0.0982	–	–	–
NCI-H1666	0.983	0.924	0.416	0.592	0.558	0.476	0.384	0.254	0.786	0.802	0.757	0.591	0.99	0.982	0.842	0.441	0.351	1.01	0.597	–
NCI-H1734	0.789	0.559	0.615	0.393	0.284	0.257	0.165	0.129	0.472	0.543	0.405	0.25	0.928	0.902	0.548	0.549	0.19	0.772	0.471	0.665
NCI-H1755	1.01	0.973	0.919	0.603	0.547	0.411	0.273	0.252	0.412	0.476	0.422	0.34	0.912	1.05	0.854	0.586	0.278	0.899	0.461	0.929
NCI-H1793	0.668	0.71	0.726	0.386	0.344	0.157	0.163	0.147	0.347	0.409	–	0.343	0.844	0.622	0.305	0.22	0.202	0.769	0.368	0.772
NCI-H1915	1.12	1.04	1.03	0.37	0.31	0.26	0.182	0.156	0.292	0.358	0.299	0.297	0.976	1.15	0.491	0.818	0.272	1.07	0.301	1.09
NCI-H1944	0.936	–	0.831	0.232	0.197	0.15	0.116	0.148	0.208	0.204	0.14	0.11	0.873	0.963	0.887	0.945	0.154	0.806	0.168	0.808
NCI-H1975	0.641	0.64	0.408	0.402	0.362	0.201	0.139	0.124	0.367	0.388	0.441	0.2	1.01	1.03	0.483	0.18	0.16	0.74	0.302	0.614
NCI-H1993	0.706	0.577	0.605	0.48	0.495	0.438	0.465	0.524	0.657	0.588	0.621	0.473	0.768	0.869	0.699	0.477	0.559	0.721	0.499	0.667
NCI-H2009	1.14	1.13	0.681	0.502	0.324	0.228	0.137	0.15	0.341	0.324	0.346	0.262	1.22	1.18	0.817	0.406	0.147	1.12	0.305	1.12
NCI-H2023	0.606	0.57	0.0938	0.446	0.409	0.223	0.109	0.147	0.667	0.603	0.497	0.0768	0.938	0.867	0.571	0.225	0.0843	0.646	0.245	–
NCI-H2085	0.935	1.02	0.853	0.641	0.69	0.515	0.322	0.232	0.237	0.228	0.229	0.252	0.97	0.922	0.791	0.538	0.225	0.965	0.257	0.96
NCI-H2087	1.03	1.34	0.583	0.481	0.258	0.206	0.119	0.128	0.938	0.903	0.793	0.554	1.08	1.04	0.382	0.257	0.189	1.02	0.736	1.07
NCI-H2126	0.784	0.78	0.772	0.561	0.47	0.424	0.309	0.222	0.54	0.568	0.672	0.413	0.935	1.23	0.813	0.875	0.494	0.794	0.562	0.717
NCI-H2170	0.834	0.913	0.718	0.418	0.37	0.301	0.229	0.221	0.602	0.552	0.619	0.436	1.05	1.03	1.01	0.841	0.268	0.766	0.701	0.889
NCI-H2228	0.884	0.591	0.234	0.372	0.224	0.233	0.084	0.165	0.399	0.465	0.309	0.0755	1.05	0.921	0.416	0.515	0.17	0.709	0.28	0.504
